Experimental data taken from patent US20210108198A1, “APPLICATION OF COMPOUND OR TRADITIONAL CHINESE MEDICINE EXTRACT IN PREPARATION OF NUCLEIC ACID DELIVERY AGENT AND RELATED PRODUCTS THEREOF” (INSTITUTE OF BASIC MEDICAL SCIENCES CHINESE ACADEMY OF …, priority 2017, published 2021).

What was measured:
A549 cell = experiment: RT-qPCR detection of nucleic acid delivered by lipid into A549 cells; format: cell-based, human; conditions: various small RNA 200 nM; reverse evaporation method; 3 hours; compared with the control; FIG. 11A-C
Protocol: 3.1 NCI-N87 cell (gastric cancer cell), MRC-5 cell (lung fibroblast), A549 cell (lung cancer cell) were cultured to logarithmic growth phase, and then plated to a six-well plate at cell density of 1×10^6/2 mL medium/well; MRC-5 cell was cultured in Eagle's MEM medium (MEM, Gibco); A549 cell was cultured in Ham's F-12 medium (HyClone); NCI-N87 cell was cultured in RPMI-1640 medium (HyClone); followed by incubation overnight at 37° C., and the follow-up experiments were performed after the cells were attached to the walls.
4) Lipid nucleic acid mixture: the mixture of lipid and HJT-sRNA-m7 prepared from the step 2 were added into cells and mixed, and the final concentration of RNA was kept at 200 nM.
3.3 After co-incubation with the small RNA for 3 hours, the cells were washed 2-3 times with PBS. The cells were harvested with TRIzol lysis buffer, and the total RNA was extracted. The abundance of small RNA that entered cells was detected by RT-qPCR, and the localization of RNA was detected by fluorescence in situ hybridization; protocols of each detection method were as follows:
3.3.1 RT-qPCR Detection of Small RNA (Taqman Probe Method)
3.3.2 RT-qPCR Detection of Small RNA (SYBR Green Dye Method)
(§1) Mixtures of soybean PC, lipid No. 11 (18:0/18:2) and lipid No. 12 (16:0/18:2), and various small RNA (see below Table 3) were prepared by the reverse evaporation method and then added into A549 cell line (the final concentration of sRNA was 200 nM); the negative control group (control) was directly added with the same concentration of sRNA; the positive control group (RNAimax) was transfected with Lipofectamine RNAimax (transfection reagent 6 μl/well). The abundance of sRNA in the cells was detected by Taqman probe after 3 hours, and the relative expression level of sRNA was calculated by 2-ΔCt method.
3.1.3 After co-incubation with cells for 12-24 hours, the cells were washed twice with PBS. The cells were harvested with TRIzol lysis buffer (purchased from Sigma-Aldrich), and total RNA was extracted. The abundance of HJT-sRNA-m7 that entered the cells was detected by RT-qPCR; the protocols were as follows:
4368813) was used to reverse transcribe sRNA to cDNA by stem-loop method (see, e.g. Real-time quantification of microRNAs by stem-loop RT-PCR, Nucleic Acids Res. 2005 Nov. 27; 33(20):e179, incorporated by reference herein).

A549 cell line = experiment: Fluorescence in situ hybridization (FISH) of small RNA delivered by lipid; format: cell-based, human; conditions: reverse evaporation method; FIG. 12
Protocol: 3.3.3 Fluorescence In Situ Hybridization (FISH) of Small RNA
9) The culture plate was placed in a hybridization cassette in hybridization buffer (50% formamide, 5×SSC, 5× Denharts, 250 μg/mL yeast RNA, 500 μg/mL herring sperm DNA) and pre-incubated at room temperature for 1 hour.
10) Add RNA probes (HJT-sRNA-m7 probe: 5′-[…]-3′ (SEQ ID NO: 27), Scrambled probe: 5′-[…]-3′ (SEQ ID NO: 28), U6 probe: 5′-[…]-3′ (SEQ ID NO: 29)) to the hybridization buffer (the concentration of RNA probes was 0.1-0.2 ng/μ1), denature at 85° C. for 5 min, and quickly place it on ice. […]
as §1

[1] = tested on: 3′UTRs of their target genes; experiment: Luciferase with wild-type or mutated 3′UTR of target gene after lipid-mediated sRNA delivery; format: cell-based; conditions: FIG. 13
Source text: It can be used as a means for the delivery of nucleic acid drug.

[2] = In vivo delivery of lipid nucleic acid mixture by gavage (blood and lung); design: species or system C57 mice; conditions: gavage 200 μl/animal; 6 hours after gavage; FIG. 14
Protocol: 1. Preparation of lipid nucleic acid mixture: the mixture of lipid No. 11 or No. 12 with nucleic acid, and the mixture of the lipid combination of No. 1/2/4/9/14/18/19/20/21/22/23/24/25/26/27/28/29/30/32, No. 3/8/10/11/12/13, and No. 6/15/16/17/31 with nucleic acid were prepared by reverse evaporation and boiling method (refer to steps 2.1-2.2).
2. Gavage were performed on 6-8 weeks old male C57 mice: 200 μl/aminal, grouped as follows:
(1) Control group (free uptake group): no treatment or HJT-sRNA-m7 was given by gavage;
(2) Lipid No. 11 (18:0/18:2) group: lipid No. 11 (18:0/18:2) or a mixture of lipid No. 11 (18:0/18:2) and HJT-sRNA-m7 were given by gavage;
(3) Lipid No. 12 (16:0/18:2) group: lipid No. 12 (16:0/18:2) or a mixture of lipid No. 12 (16:0/18:2) and HJT-sRNA-m7 were given by gavage;
3. Sample collection: 6 hours after gavage, mouse whole blood (500 μl) and lung (110 mg) were collected by 1.5 mL TRIzol-LS or 3 mL TRIzol, respectively, homogenized and then frozen under −80° C. for storage.
4. […]

Row | SMILES | abundance of sRNA in the cells (Taqman probe) (A549 cell) | localization of delivered nucleic acid (FISH) (A549 cell line) | effect on the mutated 3′UTR of target genes (Luciferase) [1] | relative expression level of the Luciferase with the wild-type 3′UTR [1] | entry of HJT-sRNA-m7 into blood and lung (RT-qPCR) [2]
1 | CCCCC/C=C\C/C=C\CCCCCCCC(=O)O[C@H](COC(=O)CCCCCCCCCCCCCCC)COP(=O)([O-])OCC[N+](C)(C)C [No. 12, (2-{[(2R)-3-(hexadecanoyloxy)-2-[(9Z,12Z)-octadeca-9,12-dienoyloxy]propylphosphonato]oxy}ethyl)trimethylazanium] | could effectively facilitate nucleic acid molecules of different sequences entry into various cells | entered into cytoplasm and were primarily localized in cytoplasm | did not act on the mutated 3′UTR of their target genes | reduced the relative expression level of the Luciferase with the wild-type 3′UTR in the target gene | could promote entry of small fragments of nucleic acids into the blood and lung
2 | CCCCC/C=C\C/C=C\CCCCCCCC(=O)O[C@H](COC(=O)CCCCCCCCCCCCCCCCC)COP(=O)([O-])OCC[N+](C)(C)C [No. 11, trimethyl(2-{[(2R)-2-[(9Z,12Z)-octadeca-9,12-dienoyloxy]-3-(octadecanoyloxy)propylphosphonato]oxy}ethyl)azanium] | could effectively facilitate nucleic acid molecules of different sequences entry into various cells | entered into cytoplasm and were primarily localized in cytoplasm | did not act on the mutated 3′UTR of their target genes | reduced the relative expression level of the Luciferase with the wild-type 3′UTR in the target gene | could promote entry of small fragments of nucleic acids into the blood and lung
